Measurements from ChEMBL document CHEMBL1201862, “PubChem BioAssay data set” (2004).
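How tested: cells in 96-well plates exposed to compound for 48 hours at five concentrations. GI50 = concentration required for 50% inhibition of growth.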 The source made the active and inactive calls. Cut-off read from the data, not from the text of the source: active = GI50 up to about 1.1 µM and inactive = higher.

Key:
Experiment in all cases: NCI-60 cell line screen, 48 h
SF-539 = test system: SF-539
HT-29 = test system: HT-29
OVCAR-5 = test system: OVCAR-5
SK-MEL-5 = test system: SK-MEL-5
HCC 2998 = test system: HCC 2998
XF498 = test system: XF498
M19-MEL = test system: M19-MEL
CCRF-CEM = test system: CCRF-CEM
U-251 = test system: U-251
MCF7 = test system: MCF7
KM-20L2 = test system: KM-20L2
KM12 = test system: KM12
IGROV-1 = test system: IGROV-1
Malme-3M = test system: Malme-3M
HOP-18 = test system: HOP-18
NCI-H460 = test system: NCI-H460
OVCAR-4 = test system: OVCAR-4
SNB-78 = test system: SNB-78
HCT-116 = test system: HCT-116
UACC-62 = test system: UACC-62
SNB-75 = test system: SNB-75
SK-OV-3 = test system: SK-OV-3
NCI-H226 = test system: NCI-H226
SF-295 = test system: SF-295
SW-620 = test system: SW-620
SK-MEL-2 = test system: SK-MEL-2
SNB-19 = test system: SNB-19
NCI-H522 = test system: NCI-H522
HL-60 = test system: HL-60
RPMI-8226 = test system: RPMI-8226
OVCAR-3 = test system: OVCAR-3
UACC-257 = test system: UACC-257
HCT-15 = test system: HCT-15
A549 = test system: A549
NCI/ADR-RES = test system: NCI/ADR-RES
SK-MEL-28 = test system: SK-MEL-28
OVCAR-8 = test system: OVCAR-8
HOP-62 = test system: HOP-62
DMS-273 = test system: DMS-273
DLD-1 = test system: DLD-1
NCI-H23 = test system: NCI-H23
COLO 205 = test system: COLO 205
A498 = test system: A498
CAKI-1 = test system: CAKI-1
UO-31 = test system: UO-31
LOX IMVI = test system: LOX IMVI
EKVX = test system: EKVX
HOP-92 = test system: HOP-92
K562 = test system: K562
MOLT-4 = test system: MOLT-4
RXF 393 = test system: RXF 393
SF-268 = test system: SF-268
DMS-114 = test system: DMS-114
SN12C = test system: SN12C
M14 = test system: M14
LXFL 529 = test system: LXFL 529
TK-10 = test system: TK-10
786-0 = test system: 786-0
ACHN = test system: ACHN

COc1cc2c(cc1O)N=C[C@@H]1CC[C@@H](O)N1C2=O.COc1cc2c(cc1O)N=C[C@@H]1CC[C@H](O)N1C2=O
GI50 (SF-539): 0.726 µM (active) | GI50 (HT-29): 2.17 µM (inactive) | GI50 (OVCAR-5): 2.99 µM (inactive) | GI50 (SK-MEL-5): 0.583 µM (active) | GI50 (HCC 2998): 0.863 µM (active) | GI50 (XF498): 0.48 µM (active) | GI50 (M19-MEL): 1.2 µM (inactive) | GI50 (CCRF-CEM): 0.369 µM (active) | GI50 (U-251): 0.635 µM (active) | GI50 (MCF7): 0.946 µM (active) | GI50 (KM-20L2): 1.72 µM (inactive) | GI50 (KM12): 1.38 µM (inactive) | GI50 (IGROV-1): 1.83 µM (inactive) | GI50 (Malme-3M): 0.597 µM (active) | GI50 (HOP-18): 0.863 µM (active) | GI50 (NCI-H460): 2.54 µM (inactive) | GI50 (OVCAR-4): 3.55 µM (inactive) | GI50 (SNB-78): 0.631 µM (active) | GI50 (HCT-116): 1.32 µM (inactive) | GI50 (UACC-62): 0.627 µM (active) | GI50 (SNB-75): 1.02 µM (active) | GI50 (SK-OV-3): 4.41 µM (inactive) | GI50 (NCI-H226): 0.525 µM (active) | GI50 (SF-295): 0.984 µM (active) | GI50 (SW-620): 0.652 µM (active) | GI50 (SK-MEL-2): 0.433 µM (active) | GI50 (SNB-19): 1.4 µM (inactive) | GI50 (NCI-H522): 0.159 µM (active) | GI50 (HL-60): 0.897 µM (active) | GI50 (RPMI-8226): 0.527 µM (active) | GI50 (OVCAR-3): 0.561 µM (active) | GI50 (UACC-257): 1.6 µM (inactive) | GI50 (HCT-15): 0.74 µM | GI50 (A549): 5.6 µM (inactive) | GI50 (NCI/ADR-RES): 0.855 µM (active) | GI50 (SK-MEL-28): 0.977 µM (active) | GI50 (OVCAR-8): 1.05 µM (active) | GI50 (HOP-62): 0.631 µM (active) | GI50 (DMS-273): 5.48 µM (inactive) | GI50 (DLD-1): 1 µM (active) | GI50 (NCI-H23): 0.916 µM (active) | GI50 (COLO 205): 0.738 µM (active) | GI50 (A498): 0.43 µM (active) | GI50 (CAKI-1): 0.607 µM (active) | GI50 (UO-31): 0.579 µM (active) | GI50 (LOX IMVI): 0.473 µM (active) | GI50 (EKVX): 1.87 µM (inactive) | GI50 (HOP-92): 0.752 µM (active) | GI50 (K562): 0.849 µM (active) | GI50 (MOLT-4): 0.615 µM (active) | GI50 (RXF 393): 0.281 µM (active) | GI50 (SF-268): 0.735 µM (active) | GI50 (DMS-114): 0.522 µM (active) | GI50 (SN12C): 1.04 µM (active)

CC1C=C(OC(=O)c2ccccc2)C(=O)C(n2cc(F)c(=O)[nH]c2=O)O1 (centres undefined)
GI50 (SF-539): 13.9 µM (inactive) | GI50 (HT-29): 18.9 µM (inactive) | GI50 (OVCAR-5): > 100 µM (inactive) | GI50 (SK-MEL-5): 91 µM (inactive) | GI50 (HCC 2998): 5.56 µM (inactive) | GI50 (XF498): 48.1 µM (inactive) | GI50 (M19-MEL): 93.3 µM (inactive) | GI50 (CCRF-CEM): 45.1 µM (inactive) | GI50 (U-251): 97.3 µM (inactive) | GI50 (M14): 51.3 µM (inactive) | GI50 (KM-20L2): 94.6 µM (inactive) | GI50 (KM12): 46 µM (inactive) | GI50 (IGROV-1): > 100 µM (inactive) | GI50 (Malme-3M): 51.2 µM (inactive) | GI50 (HOP-18): > 100 µM (inactive) | GI50 (NCI-H460): 19.5 µM (inactive) | GI50 (OVCAR-4): 53.2 µM (inactive) | GI50 (SNB-78): > 100 µM (inactive) | GI50 (HCT-116): 38.5 µM (inactive) | GI50 (UACC-62): 79.4 µM (inactive) | GI50 (SNB-75): > 100 µM (inactive) | GI50 (SK-OV-3): > 100 µM (inactive) | GI50 (NCI-H226): > 100 µM (inactive) | GI50 (SF-295): > 100 µM (inactive) | GI50 (SW-620): > 100 µM (inactive) | GI50 (SK-MEL-2): 79.3 µM (inactive) | GI50 (SNB-19): > 100 µM (inactive) | GI50 (NCI-H522): > 100 µM (inactive) | GI50 (HL-60): 64.3 µM (inactive) | GI50 (RPMI-8226): 23.9 µM (inactive) | GI50 (OVCAR-3): > 100 µM (inactive) | GI50 (UACC-257): > 100 µM (inactive) | GI50 (HCT-15): 50.6 µM | GI50 (A549): 38.2 µM (inactive) | GI50 (SK-MEL-28): 53.1 µM (inactive) | GI50 (OVCAR-8): 84.3 µM (inactive) | GI50 (LXFL 529): 56 µM (inactive) | GI50 (TK-10): > 100 µM (inactive) | GI50 (HOP-62): 27.8 µM (inactive) | GI50 (DMS-273): 42.8 µM (inactive) | GI50 (DLD-1): 22.8 µM (inactive) | GI50 (NCI-H23): 53.6 µM (inactive) | GI50 (COLO 205): 50.9 µM (inactive) | GI50 (A498): > 100 µM (inactive) | GI50 (CAKI-1): 62.1 µM (inactive) | GI50 (UO-31): 87.7 µM (inactive) | GI50 (EKVX): > 100 µM (inactive) | GI50 (HOP-92): > 100 µM (inactive) | GI50 (786-0): 69.8 µM (inactive) | GI50 (K562): 76 µM (inactive) | GI50 (MOLT-4): 51.5 µM (inactive) | GI50 (ACHN): 59.7 µM (inactive) | GI50 (SF-268): > 100 µM (inactive) | GI50 (DMS-114): > 100 µM (inactive) | GI50 (SN12C): > 100 µM (inactive)
